# Results taken from patent publication US20260049092A1, “ANTIBACTERIAL COMPOUNDS” (Blacksmith Medicines, Inc., priority 2022, published 2026).
# Like-named read-outs stand apart in the source and are kept apart here.
# Assays:
# Assay in all cases: Bacterial susceptibility testing (MIC, broth microdilution)
# Format in all cases: cell-based
# [1] = system: P. aeruginosa ATCC27853; conditions: for MIC: Pseudomonas aeruginosa
# Experimental: (§1) Minimal inhibitory concentrations (MIC) were determined by the broth microdilution method in accordance with the Clinical and Laboratory Standards Institute (CLSI) guidelines. In brief, organism suspensions were adjusted to a final inoculum between 3×10^5 and 7×10^5 colony-forming units (CFU)/mL. Drug dilutions and inocula were made in sterile, cation adjusted Mueller-Hinton Broth (Beckton Dickinson). In wells, an inoculum volume of 100 μL was mixed to 2 μL of DMSO with 2-fold serial dilutions of drug. All inoculated microdilution trays were incubated in ambient air at 35° C. for 18-24 h. Following incubation, the lowest concentration of the drug that prevented visible growth (OD600 nm<0.05) was recorded as the MIC. Performance of the assay was monitored by the use of laboratory quality -control strains and compounds with defined MIC spectrum, in accordance with CLSI guidelines.
# [2] = system: E. coli ATCC25922; conditions: for MIC: Escherichia coli
# Experimental: as §1
# [3] = system: K. pneumoniae ATCC13883; conditions: for MIC: Klebsiella pneumoniae
# Experimental: as §1
# [4] = system: P. aeruginosa PAO1; conditions: Pseudomonas aeruginosa
# Experimental: as §1
# [5] = ATCC27853, broth microdilution, cation adjusted Mueller-Hinton Broth, 35° C., 18-24 h, read-out: P. aeruginosa ATCC27853 MIC
# [6] = ATCC25922, broth microdilution, cation adjusted Mueller-Hinton Broth, 35° C., 18-24 h, read-out: E. coli ATCC25922 MIC
# [7] = ATCC13883, broth microdilution, cation adjusted Mueller-Hinton Broth, 35° C., 18-24 h, read-out: K. pneumoniae ATCC13883 MIC
# [8] = PAO1, broth microdilution, cation adjusted Mueller-Hinton Broth, 35° C., 18-24 h, read-out: P. aeruginosa PAO1 MIC
# [9] = broth microdilution, cation adjusted Mueller-Hinton Broth, 35° C., 18-24 h
SMILES,"MIC ([1]; ATCC27853, read-out: P. aeruginosa ATCC27853 MIC)","MIC ([2]; ATCC25922, read-out: E. coli ATCC25922 MIC)","MIC ([3]; ATCC13883, read-out: K. pneumoniae ATCC13883 MIC)","MIC ([4]; PAO1, read-out: P. aeruginosa PAO1 MIC)","MIC [1, 5]","MIC [2, 6]","MIC [3, 7]","MIC [4, 8]","P. aeruginosa ATCC27853 MIC [1, 9]","E. coli ATCC25922 MIC [2, 9]","K. pneumoniae ATCC13883 MIC [3, 9]"
"C[C@H](O)c1nccn1[C@@H](C#Cc1ccc(-c2ccc(OC3CN(CC#N)C3)cc2)cc1)CO [Compound 92, 2-(3-((4′-((S)-4-hydroxy-3-(2-((S)-1-hydroxyethyl)-1H-imidazol-1-yl)but-1-yn-1-yl)-[1,1′-biphenyl]-4-yl)oxy)azetidin-1-yl)acetonitrile]",6 µg/mL,0.75 µg/mL,1.5 µg/mL,3 µg/mL,–,–,–,–,–,–,–
"C[C@H](O)c1nccn1[C@@H](C#Cc1ccc(-c2ccc(OC3CCN(CC#N)C3)cc2)cc1)CO (mixture of isomers) [Compound 104, 2-(3-((4′-((S)-4-hydroxy-3-(2-((S)-1-hydroxyethyl)-1H-imidazol-1-yl)but-1-yn-1-yl)-[1,1′-biphenyl]-4-yl)oxy)pyrrolidin-1-yl)acetonitrile]",–,–,–,–,2 µg/mL,2 µg/mL,4 µg/mL,2 µg/mL,–,–,–
"C[C@H](O)c1nccn1[C@@H](C#Cc1ccc(-c2ccc(O[C@H]3COC[C@@H]3O)c(F)c2F)cc1)CO (single isomer, unassigned) [Compound 14]",–,–,–,–,8 µg/mL,2 µg/mL,4 µg/mL,4 µg/mL,–,–,–
"CO[C@@H]1COC[C@H]1Oc1ccc(-c2ccc(C#C[C@@H](CO)n3ccnc3[C@H](C)O)cc2)cc1 (single isomer, unassigned) [Compound 126]",–,–,–,–,4 µg/mL,0.5 µg/mL,1 µg/mL,2 µg/mL,–,–,–
"C[C@H](O)c1nccn1[C@@H](C#Cc1ccc(-c2ccc(O[C@H]3C[C@H](CNCC#N)C3)cc2)cc1)CO (racemic) [Compound 133, 2-((((rac-trans)-3-((4′-((S)-4-hydroxy-3-(2-((S)-1-hydroxyethyl)-1H-imidazol-1-yl)but-1-yn-1-yl)-[1,1′-biphenyl]-4-yl)oxy)cyclobutyl)methyl)amino) acetonitrile]",–,–,–,–,4 µg/mL,1 µg/mL,8 µg/mL,4 µg/mL,–,–,–
"C[C@H](O)c1nccn1[C@@H](C#Cc1ccc(-c2ccc(N3CC4(COC4)C3)cc2)cc1)CO (single isomer, unassigned) [Compound 75]",–,–,–,–,4 µg/mL,0.25 µg/mL,1 µg/mL,2 µg/mL,–,–,–
"CC(=O)N1CC(Nc2ccc(-c3ccc(C#C[C@@H](CO)n4ccnc4[C@H](C)O)cc3)cc2)C1 (single isomer, unassigned) [Compound 76]",–,–,–,–,4 µg/mL,2 µg/mL,16 µg/mL,4 µg/mL,–,–,–
"C[C@H](O)c1nccn1[C@@H](C#Cc1ccc(-c2ccc(N[C@@H]3COC[C@H]3O)c(F)c2)cc1)CO (single isomer, unassigned) [Compound 59]",–,–,–,–,4 µg/mL,1 µg/mL,4 µg/mL,2 µg/mL,–,–,–
"C[C@H](O)c1nccn1[C@@H](C#Cc1ccc(-c2ccc(CO[C@H]3COC[C@@H]3O)cc2F)cc1)CO (single isomer, unassigned) [Compound 50]",–,–,–,–,4 µg/mL,0.5 µg/mL,2 µg/mL,2 µg/mL,–,–,–
"C[C@H](O)c1nccn1[C@@H](C#Cc1ccc(-c2ccc(O[C@@H]3COC[C@H]3O)cc2)c(F)c1)CO (racemic) [Compound 5, (rac-trans)-4-((2′-fluoro-4′-((S)-4-hydroxy-3-(2-((S)-1-hydroxyethyl)-1H-imidazol-1-yl)but-1-yn-1-yl)-[1,1′-biphenyl]-4-yl)oxy)tetrahydrofuran-3-ol]",–,–,–,–,4 µg/mL,2 µg/mL,4 µg/mL,4 µg/mL,–,–,–
"C[C@H](O)c1nccn1[C@@H](C#Cc1ccc(-c2ccc(C3COC3)cc2)cc1)CO [Compound 128, (S)-2-(2-((S)-1-hydroxyethyl)-1H-imidazol-1-yl)-4-(4′-(oxetan-3-yl)-[1,1′-biphenyl]-4-yl)but-3-yn-1-ol]",–,–,–,–,4 µg/mL,0.25 µg/mL,1 µg/mL,2 µg/mL,–,–,–
"C[C@H](O)c1nccn1[C@@H](C#Cc1ccc(-c2ccc([C@@H](C)O)cc2)cc1)CO [Compound 138, (S)-2-(2-((S)-1-hydroxyethyl)-1H-imidazol-1-yl)-4-(4′-((R)-1-hydroxyethyl)-[1,1′-biphenyl]-4-yl)but-3-yn-1-ol]",–,–,–,–,16 µg/mL,1 µg/mL,2 µg/mL,4 µg/mL,–,–,–
"C[C@H](O)c1nccn1[C@@H](C#Cc1ccc(-c2ccc(O[C@H]3C[C@H](NS(C)(=O)=O)C3)cc2)cc1)CO (racemic) [Compound 120, N-((rac-trans)-3-((4′-((S)-4-hydroxy-3-(2-((S)-1-hydroxyethyl)-1H-imidazol-1-yl)but-1-yn-1-yl)-[1,1′-biphenyl]-4-yl)oxy)cyclobutyl)methane-sulfonamide]",–,–,–,–,4 µg/mL,1 µg/mL,2 µg/mL,2 µg/mL,–,–,–
"C[C@H](O)c1nccn1[C@@H](C#Cc1ccc(-c2ccc(O[C@H]3CCOC[C@@H]3O)cc2F)cc1)CO (single isomer, unassigned) [Compound 56]",–,–,–,–,8 µg/mL,1 µg/mL,2 µg/mL,2 µg/mL,–,–,–
"C[C@H](O)c1nccn1[C@@H](C#Cc1ccc(-c2ccc3c(c2)NCCO3)cc1)CO [Compound 83, (S)-4-(4-(3,4-dihydro-2H-benzo[b][1,4]oxazin-6-yl)phenyl)-2-(2-((S)-1-hydroxyethyl)-1H-imidazol-1-yl)but-3-yn-1-ol]",–,–,–,–,> 32 µg/mL,2 µg/mL,4 µg/mL,16 µg/mL,–,–,–
"C[C@H](O)c1nccn1[C@@H](C#Cc1ccc(-c2ccc(O[C@H]3COC[C@@H]3O)cc2F)cc1)CO (single isomer, unassigned) [Compound 2]",–,–,–,–,4 µg/mL,1 µg/mL,2 µg/mL,2 µg/mL,–,–,–
"CO[C@H]1C[C@H](c2ccc(-c3ccc(C#C[C@@H](CO)n4ccnc4[C@H](C)O)cc3)cc2)C1 (racemic) [Compound 117, (S)-2-(2-((S)-1-hydroxyethyl)-1H-imidazol-1-yl)-4-(4′-((rac-trans)-3-methoxycyclobutyl)-[1,1′-biphenyl]-4-yl)but-3-yn-1-ol]",–,–,–,–,4 µg/mL,0.12 µg/mL,0.25 µg/mL,2 µg/mL,–,–,–
"C[C@H](O)c1nccn1[C@@H](C#Cc1ccc(-c2ccc(O[C@@H]3COC[C@H]3O)c(F)c2)c(F)c1)CO (single isomer, unassigned) [Compound 10]",–,–,–,–,8 µg/mL,1 µg/mL,2 µg/mL,4 µg/mL,–,–,–
"C[C@H](O)c1nccn1[C@@H](C#Cc1ccc(-c2ccc(O[C@H]3C[C@@H](C#N)C3)cc2)cc1)CO (racemic) [Compound 129, (rac-cis)-3-((4′-((S)-4-hydroxy-3-(2-((S)-1-hydroxyethyl)-1H-imidazol-1-yl)but-1-yn-1-yl)-[1,1′-biphenyl]-4-yl)oxy)cyclobutane-1-carbonitrile]",–,–,–,–,4 µg/mL,0.5 µg/mL,1 µg/mL,2 µg/mL,–,–,–
"C[C@H](O)c1nccn1[C@@H](C#Cc1ccc(-c2ccc(O[C@@H]3COC[C@H]3OC(F)(F)F)cc2)cc1)CO (racemic) [Compound 124, (S)-2-(2-((S)-1-hydroxyethyl)-1H-imidazol-1-yl)-4-(4′-(((rac-trans)-4-(trifluoromethoxy)-tetrahydrofuran-3-yl)oxy)-[1,1′-biphenyl]-4-yl)but-3-yn-1-ol]",–,–,–,–,> 32 µg/mL,2 µg/mL,4 µg/mL,8 µg/mL,–,–,–
"C[C@H](O)c1nccn1[C@@H](C#Cc1ccc(-c2ccc(N[C@H]3CCC[C@@H]3O)cc2)cc1)CO (single isomer, unassigned) [Compound 77]",–,–,–,–,4 µg/mL,0.5 µg/mL,2 µg/mL,4 µg/mL,–,–,–
"C[C@H](O)c1nccn1[C@@H](C#Cc1ccc(-c2ccc(O[C@@H]3CCOC[C@H]3O)cc2F)cc1)CO (single isomer, unassigned) [Compound 55]",–,–,–,–,8 µg/mL,1 µg/mL,4 µg/mL,4 µg/mL,–,–,–
"C[C@H](O)c1nccn1[C@@H](C#Cc1ccc(-c2ccc(OC3CN(C4(C#N)COC4)C3)cc2)cc1)CO [Compound 87, 3-(3-((4′-((S)-4-hydroxy-3-(2-((S)-1-hydroxyethyl)-1H-imidazol-1-yl)but-1-yn-1-yl)-[1,1′-biphenyl]-4-yl)oxy)azetidin-1-yl)oxetane-3-carbonitrile]",–,–,–,–,8 µg/mL,2 µg/mL,4 µg/mL,4 µg/mL,–,–,–
"C[C@H](O)c1nccn1[C@@H](C#Cc1ccc(-c2ccc(CO[C@H]3COC[C@@H]3O)c(F)c2)cc1)CO (single isomer, unassigned) [Compound 46]",–,–,–,–,–,–,–,–,4 µg/mL,1 µg/mL,2 µg/mL
